Results reported in patent US12030912B2, “Cationic steroidal antimicrobial compounds with urethane linkages” (Brigham Young University, priority 2020, dated 2024).
Converted amounts (≈) assume the structure as drawn. Where two headings read alike, the source gives them in different places.

Tests used:
[1] = test system: Pseudomonas aeruginosa (PA01 47085); test: Minimum inhibitory concentration (MIC), antimicrobial activity; format: cell-based; details: Pathogen PA01 47085
Description: (§1) The antimicrobial activity of CSA-255 was determined in comparison to CSA-44, a CSA compound known to have very high antimicrobial activity compared to other CSAs. The microbes used in the comparative test was were methicillin resistant Staphylococcus aureus (MRSA) BAA-41 and Pseudomonas aeruginosa (PA01 47085).

[2] = test system: methicillin resistant Staphylococcus aureus (MRSA) BAA-41; test: as above; format: cell-based; details: Pathogen MRSA BAA-41
Description: as §1

MIC [1] [µg/mL] | MIC [2] [µg/mL] | Compound | MIC ([1]; Pseudomonas aeruginosa, read-out: MIC) [µg/mL] | MIC ([2]; Staphylococcus aureus, read-out: MIC) [µg/mL]
2 (≈ 2.72 µM) | 2 (≈ 2.72 µM) | CCCCCCCCOC(=O)CC[C@@H](C)[C@H]1CC[C@H]2[C@@H]3[C@H](OC(=O)CCN)C[C@@H]4C[C@H](OC(=O)CCN)CC[C@]4(C)[C@H]3C[C@H](OC(=O)CCN)[C@]12C [CSA-44] |  | 
 |  | CCCCCCCCNC(=O)CC[C@@H](C)[C@H]1CC[C@H]2[C@@H]3[C@H](OC(=O)NCCN)C[C@@H]4C[C@H](OC(=O)NCCN)CC[C@]4(C)[C@H]3C[C@H](OC(=O)NCCN)[C@]12C [CSA-255] | 2 (≈ 2.57 µM) | 4 (≈ 5.14 µM)
